Assay results as given in ChEMBL document CHEMBL4507263, “Data for DCP probe BAY-474” (2021).
Activity calls are given as the source filed them. No cut-off for these calls is given here.

Key:
MKN-45 = test: Cell proliferation with […] cell line; assay type: functional; conditions: Homo sapiens
[1] = molecular target: Casein kinase I isoform gamma-3 (Homo sapiens) (UniProt Q9Y6M4); test: CK1gamma3 (h) Millipore kinase activity assay; conditions: Compound concentration 1.0 uM
[2] = molecular target: Casein kinase I isoform delta (Homo sapiens) (UniProt P48730); test: CK1delta (h) Millipore kinase activity assay; conditions: Compound concentration 1.0 uM
Casein kinase I isoform delta (Homo sapiens), sequence (P48730 whole entry, looked up, canonical isoform): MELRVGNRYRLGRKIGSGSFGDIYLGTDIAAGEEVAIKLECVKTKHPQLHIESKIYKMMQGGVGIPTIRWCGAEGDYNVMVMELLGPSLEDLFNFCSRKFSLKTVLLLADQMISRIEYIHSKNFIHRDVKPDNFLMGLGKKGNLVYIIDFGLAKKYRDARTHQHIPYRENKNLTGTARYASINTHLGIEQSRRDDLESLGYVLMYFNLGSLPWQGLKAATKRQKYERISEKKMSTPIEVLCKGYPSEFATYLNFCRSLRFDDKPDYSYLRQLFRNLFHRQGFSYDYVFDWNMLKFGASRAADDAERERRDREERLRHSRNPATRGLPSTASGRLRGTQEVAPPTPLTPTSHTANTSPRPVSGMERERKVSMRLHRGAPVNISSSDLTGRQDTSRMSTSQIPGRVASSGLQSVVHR

[3] = molecular target: Ephrin type-A receptor 5 (Homo sapiens) (UniProt P54756); test: EphA5 (h) Millipore kinase activity assay; conditions: Compound concentration 1.0 uM
[4] = molecular target: G protein-coupled receptor kinase 6 (Homo sapiens) (UniProt P43250); test: GRK6 (h) Millipore kinase activity assay; conditions: Compound concentration 1.0 uM
G protein-coupled receptor kinase 6 (Homo sapiens), sequence (P43250 whole entry, looked up): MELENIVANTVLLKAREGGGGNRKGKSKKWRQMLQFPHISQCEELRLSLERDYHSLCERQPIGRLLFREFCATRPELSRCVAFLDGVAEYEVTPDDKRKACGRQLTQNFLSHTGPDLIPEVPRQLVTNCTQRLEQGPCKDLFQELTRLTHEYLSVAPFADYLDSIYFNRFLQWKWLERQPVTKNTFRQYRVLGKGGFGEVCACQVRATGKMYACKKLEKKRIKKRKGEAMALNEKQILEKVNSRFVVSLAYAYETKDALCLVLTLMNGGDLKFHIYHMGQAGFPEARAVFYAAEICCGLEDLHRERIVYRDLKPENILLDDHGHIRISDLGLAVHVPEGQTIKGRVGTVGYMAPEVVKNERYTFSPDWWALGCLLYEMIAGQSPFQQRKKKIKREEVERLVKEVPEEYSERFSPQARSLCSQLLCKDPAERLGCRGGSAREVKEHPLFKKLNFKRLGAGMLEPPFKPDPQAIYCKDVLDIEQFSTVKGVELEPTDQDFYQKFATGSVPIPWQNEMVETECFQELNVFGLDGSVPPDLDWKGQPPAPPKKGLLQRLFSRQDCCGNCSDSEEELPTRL

[5] = molecular target: Serine/threonine-protein kinase MRCK alpha (Homo sapiens) (UniProt Q5VT25); test: MRCKalpha (h) Millipore kinase activity assay; conditions: Compound concentration 1.0 uM
[6] = molecular target: Serine/threonine-protein kinase 4 (Homo sapiens) (UniProt Q13043); test: MST1 (h) Millipore kinase activity assay; conditions: Compound concentration 1.0 uM
[7] = molecular target: Serine/threonine-protein kinase PLK2 (Homo sapiens) (UniProt Q9NYY3); test: Snk (h) Millipore kinase activity assay; conditions: Compound concentration 1.0 uM
[8] = molecular target: ATP-sensitive inward rectifier potassium channel 11 (Cricetulus griseus) (UniProt A0A3L7HHE1); test: Inhibition of Potassium Channel [KATP] at 10 µM in the Eurofins-Panlabs radioligand binding assay (Eurofins_assay_265600); conditions: Cricetinae; Compound concentration 10.0 uM
[9] = molecular target: D(2) dopamine receptor (Homo sapiens) (UniProt P14416); conditions: Compound concentration 10.0 uM
D(1B) dopamine receptor = D(1B) dopamine receptor (Homo sapiens, UniProt P21918); test: GPCRScan assay: inhibition of D5; parameters: radioligand conc. used [nm] 2.0 – 3.0, parental cells HEKT
[10] = molecular target: AP2-associated protein kinase 1 (Homo sapiens) (UniProt Q2M2I8); conditions: Compound concentration 1000.0 nM
[11] = test system: Tyrosine-protein kinase ABL1 (Homo sapiens), P00519 [Q252H]; conditions: Compound concentration 1000.0 nM
[12] = molecular target: RAC-beta serine/threonine-protein kinase (Homo sapiens) (UniProt P31751); conditions: Compound concentration 1000.0 nM
[13] = molecular target: Aurora kinase B (Homo sapiens) (UniProt Q96GD4); conditions: Compound concentration 1000.0 nM
[14] = molecular target: Cyclin-dependent kinase 11B (Homo sapiens) (UniProt P21127); conditions: Compound concentration 1000.0 nM
[15] = molecular target: Cyclin-dependent kinase-like 3 (Homo sapiens) (UniProt Q8IVW4); conditions: Compound concentration 1000.0 nM
[16] = molecular target: Macrophage colony-stimulating factor 1 receptor (Homo sapiens) (UniProt P07333); conditions: Compound concentration 1000.0 nM
[17] = molecular target: Death-associated protein kinase 2 (Homo sapiens) (UniProt Q9UIK4); conditions: Compound concentration 1000.0 nM
Death-associated protein kinase 2 (Homo sapiens), sequence (Q9UIK4 whole entry, looked up): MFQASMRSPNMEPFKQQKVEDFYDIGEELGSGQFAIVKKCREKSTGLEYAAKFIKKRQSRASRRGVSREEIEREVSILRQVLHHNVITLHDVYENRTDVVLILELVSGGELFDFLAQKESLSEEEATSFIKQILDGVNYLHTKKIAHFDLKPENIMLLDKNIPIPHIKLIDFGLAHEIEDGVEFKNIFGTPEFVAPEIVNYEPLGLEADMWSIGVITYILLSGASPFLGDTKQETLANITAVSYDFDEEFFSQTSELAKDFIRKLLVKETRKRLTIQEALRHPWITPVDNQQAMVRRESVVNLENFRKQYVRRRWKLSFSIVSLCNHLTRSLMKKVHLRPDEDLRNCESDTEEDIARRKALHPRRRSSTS

[18] = molecular target: Serine/threonine-protein kinase 17A (Homo sapiens) (UniProt Q9UEE5); conditions: Compound concentration 1000.0 nM
Serine/threonine-protein kinase 17A (Homo sapiens), sequence (Q9UEE5 whole entry): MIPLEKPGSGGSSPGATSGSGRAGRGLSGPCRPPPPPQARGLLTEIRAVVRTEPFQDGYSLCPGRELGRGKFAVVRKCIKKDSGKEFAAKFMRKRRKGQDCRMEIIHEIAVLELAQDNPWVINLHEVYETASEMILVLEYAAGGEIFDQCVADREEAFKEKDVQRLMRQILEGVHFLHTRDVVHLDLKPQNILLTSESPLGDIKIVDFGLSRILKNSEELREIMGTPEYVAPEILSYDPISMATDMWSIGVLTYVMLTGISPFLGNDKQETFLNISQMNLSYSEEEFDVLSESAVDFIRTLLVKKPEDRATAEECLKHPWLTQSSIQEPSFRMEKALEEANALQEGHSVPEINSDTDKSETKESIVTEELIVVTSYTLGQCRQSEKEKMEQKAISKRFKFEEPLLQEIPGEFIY

[19] = molecular target: Epidermal growth factor receptor (Homo sapiens) (UniProt P00533); conditions: Compound concentration 1000.0 nM
[20] = test system: Epidermal growth factor receptor (Homo sapiens), P00533 [G719S]; conditions: Compound concentration 1000.0 nM
[21] = molecular target: Ephrin type-A receptor 2 (Homo sapiens) (UniProt P29317); conditions: Compound concentration 1000.0 nM
[22] = molecular target: Receptor tyrosine-protein kinase erbB-3 (Homo sapiens) (UniProt P21860); conditions: Compound concentration 1000.0 nM
[23] = molecular target: Fibroblast growth factor receptor 1 (Homo sapiens) (UniProt P11362); conditions: Compound concentration 1000.0 nM
[24] = molecular target: Receptor-type tyrosine-protein kinase FLT3 (Homo sapiens) (UniProt P36888); conditions: Compound concentration 1000.0 nM
[25] = test system: Receptor-type tyrosine-protein kinase FLT3 (Homo sapiens), P36888 [D835H]; conditions: Compound concentration 1000.0 nM
[26] = test system: Receptor-type tyrosine-protein kinase FLT3 (Homo sapiens), P36888 [UNDEFINED MUTATION]; conditions: Compound concentration 1000.0 nM
[27] = molecular target: Receptor-type tyrosine-protein kinase FLT3 (Homo sapiens) (UniProt P36888); conditions: Compound concentration 1000.0 nM; remark: listed apart in the source
[28] = molecular target: Insulin-like growth factor 1 receptor (Homo sapiens) (UniProt P08069); conditions: Compound concentration 1000.0 nM
[29] = molecular target: Insulin receptor-related protein (Homo sapiens) (UniProt P14616); conditions: Compound concentration 1000.0 nM
Insulin receptor-related protein (Homo sapiens), sequence (P14616 27-742 limits assumed): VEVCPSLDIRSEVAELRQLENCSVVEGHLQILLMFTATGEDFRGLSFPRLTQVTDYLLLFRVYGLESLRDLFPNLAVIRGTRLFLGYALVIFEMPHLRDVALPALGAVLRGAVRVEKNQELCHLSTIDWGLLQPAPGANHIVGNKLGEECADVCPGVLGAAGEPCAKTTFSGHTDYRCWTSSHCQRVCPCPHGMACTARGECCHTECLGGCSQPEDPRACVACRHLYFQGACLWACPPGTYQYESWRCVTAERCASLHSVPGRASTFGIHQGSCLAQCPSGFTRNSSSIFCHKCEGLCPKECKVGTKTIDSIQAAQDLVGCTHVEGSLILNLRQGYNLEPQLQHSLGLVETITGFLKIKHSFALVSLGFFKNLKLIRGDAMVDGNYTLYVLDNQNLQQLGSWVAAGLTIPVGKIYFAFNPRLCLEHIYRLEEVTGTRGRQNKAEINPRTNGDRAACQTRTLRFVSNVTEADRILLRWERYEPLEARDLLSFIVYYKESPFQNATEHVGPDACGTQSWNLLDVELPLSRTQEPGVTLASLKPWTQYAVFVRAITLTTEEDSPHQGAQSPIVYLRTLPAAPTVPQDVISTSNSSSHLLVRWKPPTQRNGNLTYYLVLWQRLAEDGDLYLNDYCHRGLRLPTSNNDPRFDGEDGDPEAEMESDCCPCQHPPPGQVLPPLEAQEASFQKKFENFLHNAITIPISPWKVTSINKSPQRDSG
Insulin receptor-related protein (Homo sapiens), sequence (P14616 747-1297 limits assumed): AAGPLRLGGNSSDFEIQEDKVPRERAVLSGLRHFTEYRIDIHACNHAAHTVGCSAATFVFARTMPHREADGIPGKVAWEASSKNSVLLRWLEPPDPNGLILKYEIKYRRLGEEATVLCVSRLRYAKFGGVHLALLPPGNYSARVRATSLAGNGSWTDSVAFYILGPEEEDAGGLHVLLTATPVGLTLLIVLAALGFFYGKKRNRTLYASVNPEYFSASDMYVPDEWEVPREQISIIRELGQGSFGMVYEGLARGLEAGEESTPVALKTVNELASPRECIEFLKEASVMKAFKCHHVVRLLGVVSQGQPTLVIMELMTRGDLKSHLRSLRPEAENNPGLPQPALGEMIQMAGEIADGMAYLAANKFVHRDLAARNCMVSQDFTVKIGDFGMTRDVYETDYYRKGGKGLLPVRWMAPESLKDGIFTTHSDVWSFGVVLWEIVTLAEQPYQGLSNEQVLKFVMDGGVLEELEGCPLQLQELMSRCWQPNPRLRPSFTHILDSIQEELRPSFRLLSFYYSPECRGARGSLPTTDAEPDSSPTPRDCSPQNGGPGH

[30] = molecular target: Serine/threonine-protein kinase LATS2 (Homo sapiens) (UniProt Q9NRM7); conditions: Compound concentration 1000.0 nM
[31] = molecular target: Hepatocyte growth factor receptor (Homo sapiens, UniProt P08581); conditions: Compound concentration 1000.0 nM
[32] = molecular target: Macrophage-stimulating protein receptor (Homo sapiens) (UniProt Q04912); conditions: Compound concentration 1000.0 nM
[33] = molecular target: Serine/threonine-protein kinase OSR1 (Homo sapiens) (UniProt O95747); conditions: Compound concentration 1000.0 nM
[34] = molecular target: Mitogen-activated protein kinase 12 (Homo sapiens) (UniProt P53778); conditions: Compound concentration 1000.0 nM
Mitogen-activated protein kinase 12 (Homo sapiens), sequence (P53778 whole entry, canonical isoform): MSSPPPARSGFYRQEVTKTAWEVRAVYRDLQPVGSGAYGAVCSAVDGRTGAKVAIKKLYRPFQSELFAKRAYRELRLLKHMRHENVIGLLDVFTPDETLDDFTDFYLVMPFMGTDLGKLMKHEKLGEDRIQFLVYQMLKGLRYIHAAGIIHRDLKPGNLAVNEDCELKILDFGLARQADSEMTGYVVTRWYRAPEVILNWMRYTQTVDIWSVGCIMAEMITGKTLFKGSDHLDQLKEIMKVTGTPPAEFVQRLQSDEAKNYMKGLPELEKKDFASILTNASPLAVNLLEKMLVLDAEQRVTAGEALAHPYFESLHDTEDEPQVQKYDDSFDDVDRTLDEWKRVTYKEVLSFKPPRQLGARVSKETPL

[35] = molecular target: Phosphorylase b kinase regulatory subunit alpha, liver isoform (Homo sapiens) (UniProt P46019); conditions: Compound concentration 1000.0 nM
[36] = test system: Phosphatidylinositol 4,5-bisphosphate 3-kinase catalytic subunit alpha isoform (Homo sapiens), P42336 [I800L]; conditions: Compound concentration 1000.0 nM
[37] = molecular target: Phosphatidylinositol 4,5-bisphosphate 3-kinase catalytic subunit delta isoform (Homo sapiens) (UniProt O00329); conditions: Compound concentration 1000.0 nM
[38] = molecular target: Serine/threonine-protein kinase PLK1 (Homo sapiens) (UniProt P53350); conditions: Compound concentration 1000.0 nM
[39] = molecular target: Serine/threonine-protein kinase 16 (Homo sapiens) (UniProt O75716); conditions: Compound concentration 1000.0 nM
Serine/threonine-protein kinase 16 (Homo sapiens), sequence (O75716 whole entry): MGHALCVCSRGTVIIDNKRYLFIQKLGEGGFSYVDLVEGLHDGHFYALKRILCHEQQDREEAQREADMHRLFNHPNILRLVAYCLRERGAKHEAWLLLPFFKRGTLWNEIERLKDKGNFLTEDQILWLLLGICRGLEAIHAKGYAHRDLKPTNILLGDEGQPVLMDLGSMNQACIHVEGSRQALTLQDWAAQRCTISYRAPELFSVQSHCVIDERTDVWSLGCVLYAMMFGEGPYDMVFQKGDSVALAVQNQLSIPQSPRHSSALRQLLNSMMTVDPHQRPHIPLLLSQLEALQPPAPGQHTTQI

[40] = molecular target: STE20/SPS1-related proline-alanine-rich protein kinase (Homo sapiens) (UniProt Q9UEW8); conditions: Compound concentration 1000.0 nM
[41] = molecular target: Non-receptor tyrosine-protein kinase TYK2 (Homo sapiens) (UniProt P29597); conditions: Compound concentration 1000.0 nM
Non-receptor tyrosine-protein kinase TYK2 (Homo sapiens), sequence (P29597 whole entry): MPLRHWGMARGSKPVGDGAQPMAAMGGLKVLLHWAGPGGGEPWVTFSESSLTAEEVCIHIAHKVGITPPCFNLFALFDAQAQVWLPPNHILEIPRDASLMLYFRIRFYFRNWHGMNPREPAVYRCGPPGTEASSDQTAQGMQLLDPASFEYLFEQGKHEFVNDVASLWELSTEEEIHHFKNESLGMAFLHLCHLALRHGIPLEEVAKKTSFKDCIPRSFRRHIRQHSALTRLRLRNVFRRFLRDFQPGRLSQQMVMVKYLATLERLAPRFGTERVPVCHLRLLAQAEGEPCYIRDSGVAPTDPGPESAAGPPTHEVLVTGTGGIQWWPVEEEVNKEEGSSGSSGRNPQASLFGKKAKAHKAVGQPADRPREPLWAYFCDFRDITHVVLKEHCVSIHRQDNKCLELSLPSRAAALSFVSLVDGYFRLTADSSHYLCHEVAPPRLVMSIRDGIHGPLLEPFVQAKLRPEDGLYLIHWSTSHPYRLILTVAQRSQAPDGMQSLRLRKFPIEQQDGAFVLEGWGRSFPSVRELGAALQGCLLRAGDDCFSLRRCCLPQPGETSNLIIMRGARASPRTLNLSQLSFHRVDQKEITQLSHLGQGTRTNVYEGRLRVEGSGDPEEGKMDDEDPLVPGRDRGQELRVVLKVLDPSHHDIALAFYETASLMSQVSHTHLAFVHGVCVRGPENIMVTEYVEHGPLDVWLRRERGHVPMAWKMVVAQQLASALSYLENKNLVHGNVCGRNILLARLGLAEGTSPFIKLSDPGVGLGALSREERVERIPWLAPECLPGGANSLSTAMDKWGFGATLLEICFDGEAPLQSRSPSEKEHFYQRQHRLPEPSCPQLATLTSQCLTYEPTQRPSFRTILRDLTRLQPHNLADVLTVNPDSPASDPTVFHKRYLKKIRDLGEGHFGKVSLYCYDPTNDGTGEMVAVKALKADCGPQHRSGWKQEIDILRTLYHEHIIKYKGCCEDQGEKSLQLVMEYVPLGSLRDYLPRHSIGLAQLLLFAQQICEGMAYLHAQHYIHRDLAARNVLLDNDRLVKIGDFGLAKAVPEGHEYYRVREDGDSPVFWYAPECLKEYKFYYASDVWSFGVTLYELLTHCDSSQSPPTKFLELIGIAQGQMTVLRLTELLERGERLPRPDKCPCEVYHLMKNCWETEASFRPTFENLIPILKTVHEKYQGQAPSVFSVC

[42] = molecular target: Wee1-like protein kinase (Homo sapiens) (UniProt P30291); conditions: Compound concentration 1000.0 nM
[43] = molecular target: 5-hydroxytryptamine receptor 2B (Homo sapiens) (UniProt P41595); conditions: Compound concentration 10.0 uM

In the case of `CC1=C(C#N)C(c2ccc3[nH]nc(C)c3c2)C(C#N)=C(C)N1` [BAY-474], the IC90 (MKN-45) is reported as 0.024 µM (active), the inhibition [1] is reported as 21% and the inhibition [2] is reported as 3%. The inhibition [3] was -1%, the inhibition [4] was -2% and the inhibition [5] was -10%. The inhibition [6] was 19%, the inhibition [7] was 3% and the inhibition [8] was 9%. The inhibition [9] was 2%.

Compound `CC1=C(C#N)[C@@H](c2ccc3[nH]nc(C)c3c2)C(C#N)=C(c2ccc(Cl)cc2)N1` [BAY-827] has a Ki (D(1B) dopamine receptor) of 10 µM, a residual activity [10] of 100% and a residual activity [11] of 100%. It also gave a residual activity [12] of 100%, a residual activity [13] of 82.9% and a residual activity [14] of 91.6%. It also gave a residual activity [15] of 100%, a residual activity [16] of 100% and a residual activity [17] of 100%. The residual activity [18] was 100%, the residual activity [19] was 100% and the residual activity [20] was 86.8%. For the same compound, the residual activity [21] was 100%, the residual activity [22] was 63.9% and the residual activity [23] was 86.6%. For the same compound, the residual activity [24] was 100%, the residual activity [25] was 100% and the residual activity [26] was 100%. The residual activity [27] was 100%, the residual activity [28] was 100% and the residual activity [29] was 100%. It also gave a residual activity [30] of 100%, a residual activity [31] of 17.2% and a residual activity [32] of 70.2%. For the same compound, the residual activity [33] was 100%, the residual activity [34] was 58.6% and the residual activity [35] was 100%. The residual activity [36] was 100%, the residual activity [37] was 100% and the residual activity [38] was 100%. It also gave a residual activity [39] of 100%, a residual activity [40] of 90.7% and a residual activity [41] of 100%. It also gave a residual activity [42] of 100% and an inhibition [43] of -7.44%.
